From the NIST ThermoML archive (doi:10.1021/acs.jced.8b00589)

Test: xn = mol fraction of the nth substance listed
Conditions: for surface tension liquid-gas: Ring tensiometer; for viscosity / speed of sound / mass density: 100 kPa, Liquid; for viscosity: Capillary tube (Ostwald / Ubbelohde) method; for speed of sound: Frequency=2 MHz, Linear variable-path acoustic interferometer; for mass density: Vibrating tube method

CCC(C)(C)OC [2-methoxy-2-methylbutane] + CCCCCC
Conditions	mass density [kg/m3]	speed of sound [m/s]	surface tension liquid-gas [mN/m]	viscosity [mPa·s]
298.15 K, x1 = 0.1632	672.8	1077.8	17.99	0.311
298.15 K, x1 = 0.2584	683.2	1082.2	18.21	0.318
298.15 K, x1 = 0.3742	695.5	1087.5	18.5	0.327
298.15 K, x1 = 0.4276	701.6	1088.6	18.62	0.331
298.15 K, x1 = 0.5464	714.8	1092.8	18.73	0.346
298.15 K, x1 = 0.6121	722.3	1096.1	18.88	0.356
298.15 K, x1 = 0.7457	737.2	1103.5	19.15	0.381
298.15 K, x1 = 0.8625	750.1	1112.2	19.42	0.402
298.15 K, x1 = 1	765.6	1118	19.72	0.424
308.15 K, x1 = 0.1632	663.2	1035.5	16.88	0.274
308.15 K, x1 = 0.2584	673.8	1039.4	17.1	0.281
308.15 K, x1 = 0.3742	686.5	1045.1	17.4	0.293
308.15 K, x1 = 0.4276	692.3	1046.8	17.52	0.298
308.15 K, x1 = 0.5464	705.2	1049.6	17.64	0.313
308.15 K, x1 = 0.6121	712.5	1053.2	17.79	0.322
308.15 K, x1 = 0.7457	727.4	1060.4	18.07	0.342
308.15 K, x1 = 0.8625	740.7	1069.2	18.35	0.362
308.15 K, x1 = 1	756.3	1075.6	18.66	0.39
318.15 K, x1 = 0.1632	653.5	984.7	15.78	0.249
318.15 K, x1 = 0.2584	663.8	988.75	16.01	0.256
318.15 K, x1 = 0.3742	676.6	994.36	16.33	0.266
318.15 K, x1 = 0.4276	682.4	996.61	16.46	0.271
318.15 K, x1 = 0.5464	695.3	1002.4	16.58	0.284
318.15 K, x1 = 0.6121	702.5	1006.8	16.74	0.292
318.15 K, x1 = 0.7457	717.7	1013.8	17.03	0.311
318.15 K, x1 = 0.8625	730.6	1022.8	17.32	0.331
318.15 K, x1 = 1	746.3	1030.2	17.65	0.357
323.15 K, x1 = 0.1632	648.6	963.82	15.22	0.239
323.15 K, x1 = 0.2584	658.8	967.24	15.47	0.245
323.15 K, x1 = 0.3742	671.5	971.83	15.78	0.254
323.15 K, x1 = 0.4276	677.3	973.34	15.92	0.258
323.15 K, x1 = 0.5464	690.4	977.27	16.04	0.27
323.15 K, x1 = 0.6121	697.6	980.49	16.2	0.277
323.15 K, x1 = 0.7457	712.5	984.8	16.5	0.294
323.15 K, x1 = 0.8625	725.8	994.84	16.8	0.312
323.15 K, x1 = 1	741.4	1003	17.13	0.335
328.15 K, x1 = 0.1632	643.6	942.3	14.67	0.23
328.15 K, x1 = 0.2584	653.7	945.14	14.92	0.235
328.15 K, x1 = 0.3742	666.5	949.52	15.24	0.244
328.15 K, x1 = 0.4276	672.3	951.24	15.38	0.248
328.15 K, x1 = 0.5464	685.3	955.05	15.5	0.259
328.15 K, x1 = 0.6121	692.6	958.72	15.67	0.266
328.15 K, x1 = 0.7457	707.5	963.63	15.97	0.283
328.15 K, x1 = 0.8625	720.8	974.08	16.27	0.301
328.15 K, x1 = 1	736.5	985.22	16.62	0.323

CCC(C)(C)OC [2-methoxy-2-methylbutane] + Cc1cccc(C)c1
Conditions	mass density [kg/m3]	speed of sound [m/s]	surface tension liquid-gas [mN/m]	viscosity [mPa·s]
298.15 K, x1 = 0.1462	844.1	1299	26.87	0.561
298.15 K, x1 = 0.2667	833.4	1269.4	25.84	0.541
298.15 K, x1 = 0.4165	821.1	1235	24.69	0.519
298.15 K, x1 = 0.4774	816.2	1218.9	24.24	0.51
298.15 K, x1 = 0.5331	811.4	1205.2	23.82	0.502
298.15 K, x1 = 0.6068	805.3	1189.2	23.22	0.491
298.15 K, x1 = 0.7371	794.6	1165.8	22.07	0.47
298.15 K, x1 = 0.8642	782.7	1138	20.93	0.447
298.15 K, x1 = 1	765.6	1118	19.72	0.424
308.15 K, x1 = 0.1462	833.6	1254.4	25.64	0.501
308.15 K, x1 = 0.2667	822.5	1220.7	24.62	0.485
308.15 K, x1 = 0.4165	810.2	1182.3	23.47	0.468
308.15 K, x1 = 0.4774	805.1	1167	23.02	0.461
308.15 K, x1 = 0.5331	800.3	1155.1	22.61	0.454
308.15 K, x1 = 0.6068	794.4	1140.5	22.06	0.445
308.15 K, x1 = 0.7371	783.3	1118.1	20.94	0.428
308.15 K, x1 = 0.8642	771.8	1092.8	19.83	0.409
308.15 K, x1 = 1	756.3	1075.6	18.66	0.39
318.15 K, x1 = 0.1462	823.8	1209.3	24.36	0.46
318.15 K, x1 = 0.2667	813.1	1174.2	23.37	0.445
318.15 K, x1 = 0.4165	800.2	1134.5	22.25	0.428
318.15 K, x1 = 0.4774	794.8	1118.7	21.81	0.421
318.15 K, x1 = 0.5331	790.4	1105.4	21.41	0.415
318.15 K, x1 = 0.6068	784.1	1090.6	20.9	0.407
318.15 K, x1 = 0.7371	772.8	1067.2	19.83	0.391
318.15 K, x1 = 0.8642	761.3	1045.9	18.77	0.374
318.15 K, x1 = 1	746.3	1030.2	17.65	0.357
323.15 K, x1 = 0.1462	819.2	1186.3	23.73	0.424
323.15 K, x1 = 0.2667	808	1150.5	22.75	0.412
323.15 K, x1 = 0.4165	795.3	1107.7	21.65	0.399
323.15 K, x1 = 0.4774	789.8	1090.3	21.21	0.393
323.15 K, x1 = 0.5331	785.1	1076.2	20.82	0.389
323.15 K, x1 = 0.6068	778.8	1061.4	20.32	0.382
323.15 K, x1 = 0.7371	767.7	1037.8	19.27	0.369
323.15 K, x1 = 0.8642	755.8	1017	18.23	0.354
323.15 K, x1 = 1	741.4	1003	17.13	0.34
328.15 K, x1 = 0.1462	814.4	1160.6	23.1	0.414
328.15 K, x1 = 0.2667	803.3	1124	22.14	0.401
328.15 K, x1 = 0.4165	790.5	1082.2	21.05	0.387
328.15 K, x1 = 0.4774	785.2	1065.1	20.62	0.382
328.15 K, x1 = 0.5331	780.3	1051.8	20.23	0.377
328.15 K, x1 = 0.6068	773.7	1037.4	19.73	0.37
328.15 K, x1 = 0.7371	762.6	1013.9	18.71	0.357
328.15 K, x1 = 0.8642	750.8	995.44	17.69	0.342
328.15 K, x1 = 1	736.5	985.2	16.62	0.328
